# Test results: patent US10385097B2, “Ether compounds for treatment of medical disorders” (Achillion Pharmaceuticals, Inc., priority 2015, dated 2019)
# Molecular target: T1, Human Factor D (Homo sapiens, UniProt P00746)
# T1 construct: purified from human serum; purchased Complement Technology, Inc; host or cells: human serum (natural protein, not recombinant)
# Test: Human Factor D Assay
# Assay type: biochemical
# Conditions: not given
# Outline: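 Serum-purified factor D (80 nM final) preincubated 5 min at room temperature with compound in 50 mM Tris, 1 M NaCl, pH 7.5. Reaction started with 100 μM Z-L-Lys-SBzl plus 100 μM DTNB; A405 read every 30 s for 30 min; IC50 by nonlinear regression of rates.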
# T1 sequence (P00746 26-253): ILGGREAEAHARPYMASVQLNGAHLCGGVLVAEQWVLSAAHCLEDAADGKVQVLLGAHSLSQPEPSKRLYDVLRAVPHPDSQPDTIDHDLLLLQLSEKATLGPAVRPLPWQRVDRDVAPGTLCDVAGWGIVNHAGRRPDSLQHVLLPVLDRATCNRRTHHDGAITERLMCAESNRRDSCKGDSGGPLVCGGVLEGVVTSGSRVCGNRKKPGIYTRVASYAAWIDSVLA
row,Compound,IC50 [µM]
1,"CCP(=O)(O)COc1ccc2c(C(C)=O)cn(CC(=O)N3C[C@H](F)C[C@H]3C(=O)NCc3cccc(Cl)c3F)c2c1 [Compound 16, (((3-Acetyl-1-(2-((2S,4R)-2-((3-chloro-2-fluorobenzyl)carbamoyl)-4-fluoropyrrolidin-1-yl)-2-oxoethyl)-1H-indol-6-yl)oxy)methyl)(ethyl)phosphinic Acid]",< 1
2,"CC(=O)c1cn(CC(=O)N2C[C@H](F)C[C@H]2C(=O)NCc2cccc(Cl)c2F)c2cc(OCP(=O)(O)OCOC(=O)OC(C)C)ccc12 [Compound 13, (((((3-Acetyl-1-(2-((2S,4R)-2-((3-chloro-2-fluorobenzyl)carbamoyl)-4-fluoropyrrolidin-1-yl)-2-oxoethyl)-1H-indol-6-yl)oxy)methyl)(hydroxy)phosphoryl)oxy)methyl isopropyl carbonate]",< 1

# Same assay, conditions: Table 1; Human Factor D 80 nM, substrate Z-L-Lys-SBzl; read-out: IC50
row,Compound,IC50 [µM]
1,"CC(=O)c1cn(CC(=O)N2C[C@H](F)C[C@H]2C(=O)Nc2cccc(-c3ccccc3Cl)c2F)c2ccc(Oc3ncc(C(F)(F)F)cn3)cc12 [Compound 42, (2S,4R)-1-(2-(3-acetyl-5-(5-(trifluoromethyl)pyrimidin-2-yloxy)-1H-indol-1-yl)acetyl)-N-(2′-chloro-2-fluorobiphenyl-3-yl)-4-fluoropyrrolidine-2-carboxamide]",< 1
2,"CC(=O)c1cn(CC(=O)N2C[C@H](F)C[C@H]2C(=O)Nc2cccc(Br)n2)c2ccc(Oc3ncccn3)cc12 [Compound 39, (2S,4R)-1-(2-(3-acetyl-5-(pyrimidin-2-yloxy)-1H-indol-1-yl)acetyl)-N-(6-bromopyridin-2-yl)-4-fluoropyrrolidine-2-carboxamide]",< 1
3,NC(=O)c1nn(CC(=O)N2C[C@H](F)C[C@H]2C(=O)Nc2cccc(-c3ccccc3Cl)c2F)c2cc(OCS(N)(=O)=O)ccc12 [Compound 29],< 1
4,"CC(=O)c1cn(CC(=O)N2C[C@H](F)C[C@H]2C(=O)NCc2cccc(Cl)c2F)c2cc(Oc3ncccn3)ccc12 [Compound 30, (2S,4R)-1-(2-(3-Acetyl-6-(pyrimidin-2-yloxy)-1H-indol-1-yl)acetyl)-N-(3-chloro-2-fluorobenzyl)-4-fluoropyrrolidine-2-carboxamide]",< 1
5,"CC(=O)c1cn(CC(=O)N2[C@@H]3C[C@@H]3C[C@H]2C(=O)Nc2cccc(-c3ccccc3Cl)c2F)c2ccc(Oc3ncc(Br)cn3)cc12 [Compound 34, (1R,3S,5R)-2-(2-(3-Acetyl-5-((5-bromopyrimidin-2-yl)oxy)-1H-indol-1-yl)acetyl)-N-(2′-chloro-2-fluoro-[1,1′-biphenyl]-3-yl)-2-azabicyclo[3.1.0]hexane-3-carboxamide]",< 1

# Same assay, conditions: Table 2; Human Factor D 80 nM, substrate Z-L-Lys-SBzl; read-out: IC50
row,Compound,IC50 [µM]
1,"CO[C@@H]1CO[C@H]2[C@@H]1OC[C@H]2Oc1ccc2c(c1)c(C(C)=O)cn2CC(=O)N1C[C@H](F)C[C@H]1C(=O)Nc1cccc(Br)n1 [Compound 47, (2S,4R)-1-(2-(3-acetyl-5-((3R,3aR,6R,6aR)-6-methoxyhexahydrofuro[3,2-b]furan-3-yloxy)-1H-indol-1-yl)acetyl)-N-(6-bromopyridin-2-yl)-4-fluoropyrrolidine-2-carboxamide]",< 1
2,"CC(=O)c1cn(CC(=O)N2C[C@H](F)C[C@H]2C(=O)Nc2cccc(Br)n2)c2ccc(O[C@@H]3CO[C@H]4[C@@H]3OC[C@H]4O)cc12 [Compound 45, (2S,4R)-1-(2-(3-acetyl-5-((3R,3aR,6R,6aR)-6-hydroxyhexahydrofuro[3,2-b]furan-3-yloxy)-1H-indol-1-yl)acetyl)-N-(6-bromopyridin-2-yl)-4-fluoropyrrolidine-2-carboxamide]",< 1

# Same assay, conditions: Table 3; Human Factor D 80 nM, substrate Z-L-Lys-SBzl; read-out: (IC50 (Stars))
row,Compound,IC50 [µM]
1,"CC(=O)c1cn(CC(=O)N2C[C@H](F)C[C@H]2C(=O)Nc2cncc(Br)n2)c2ccc(Oc3ncc(F)cn3)cc12 [Compound 164, (2S,4R)-1-(2-(3-Acetyl-5-((5-fluoropyrimidin-2-yl)oxy)-1H-indol-1-yl)acetyl)-N-(6-bromopyrazin-2-yl)-4-fluoropyrrolidine-2-carboxamide]",< 1
2,"CC(=O)c1cn(CC(=O)N2C[C@H](F)C[C@H]2C(=O)NCCCCc2ccccc2)c2ccc(OCS(=O)(=O)NC(C)(C)C)cc12 [Compound 138, (2S,4R)-1-(2-(3-Acetyl-5-((N-(tert-butyl)sulfamoyl)methoxy)-1H-indol-1-yl)acetyl)-4-fluoro-N-(4-phenylbutyl)pyrrolidine-2-carboxamide]",< 1
3,"CC(=O)c1nn(CC(=O)N2C[C@H](F)C[C@H]2C(=O)Nc2nc(Br)ccc2C)c2ccc(Oc3ncc(C)cn3)cc12 [Compound 172, (2S,4R)-1-(2-(3-Acetyl-5-((5-methylpyrimidin-2-yl)oxy)-1H-indazol-1-yl)acetyl)-N-(6-bromo-3-methylpyridin-2-yl)-4-fluoropyrrolidine-2-carboxamide]",< 1
4,"CC(=O)c1nn(CC(=O)N2C[C@H](F)C[C@H]2C(=O)Nc2nc(Br)ccc2C)c2ccc(Oc3cnc(C)cn3)cc12 [Compound 179, (2S,4R)-1-(2-(3-Acetyl-5-((5-methylpyrazin-2-yl)oxy)-1H-indazol-1-yl)acetyl)-N-(6-bromo-3-methylpyridin-2-yl)-4-fluoropyrrolidine-2-carboxamide]",< 1
5,"CCOP(=O)(COc1ccc2c(c1)c(C(N)=O)cn2CC(=O)N1[C@@H]2CC[C@@H](C2)[C@H]1C(=O)Nc1cccc(C)n1)OCC [Compound 182, diethyl (((3-Carbamoyl-1-(2-((1R,3S,4S)-3-((6-methylpyridin-2-yl)carbamoyl)-2-azabicyclo[2.2.1]heptan-2-yl)-2-oxoethyl)-1H-indol-5-yl)oxy)methyl)phosphonate]",> 10
6,"CC(=O)c1nn(CC(=O)N2[C@H](C(=O)Nc3cccc(Br)n3)C[C@@]3(C)C[C@@H]23)c2cc(OCP(=O)(O)O)ccc12 [Compound 250, (((3-acetyl-1-(2-((1R,3S,5R)-3-((6-bromopyridin-2-yl)carbamoyl)-5-methyl-2-azabicyclo[3.1.0]hexan-2-yl)-2-oxoethyl)-1H-indazol-6-yl)oxy)methyl)phosphonic acid]",< 1
7,"CC(=O)c1nn(CC(=O)N2C[C@H](F)C[C@H]2C(=O)Nc2cccc(Br)n2)c2ccc(OC3CCOC3)cc12 (stereo partly drawn) [Compound 193, (2S,4R)-1-(2-(3-acetyl-5-((tetrahydrofuran-3-yl)oxy)-1H-indazol-1-yl)acetyl)-N-(6-bromopyridin-2-yl)-4-fluoropyrrolidine-2-carboxamide]",< 1
8,"CCOP(=O)(COc1ccc2c(c1)c(C(C)=O)cn2CC(=O)N1C[C@H](F)C[C@H]1C(=O)NCCc1ccccc1)OCC [Compound 146, Diethyl (((3-acetyl-1-(2-((2S,4R)-4-fluoro-2-(phenethylcarbamoyl)pyrrolidin-1-yl)-2-oxoethyl)-1H-indol-5-yl)oxy)methyl)phosphonate]",< 1
9,"CCOP(=O)(COc1ccc2c(c1)c(C(C)=O)cn2CC(=O)N1CC[C@H]1C(=O)Nc1cccc(C)n1)OCC [Compound 163, Diethyl (S)-(((3-acetyl-1-(2-(2-((6-methylpyridin-2-yl)carbamoyl)azetidin-1-yl)-2-oxoethyl)-1H-indol-5-yl)oxy)methyl)phosphonate]",> 10
10,"Cc1cccc(NC(=O)[C@@H]2[C@H]3CC[C@H](C3)N2C(=O)Cn2cc(C(N)=O)c3cc(OCS(=O)(=O)NC(C)(C)C)ccc32)n1 [Compound 186, 5-((N-(tert-butyl)sulfamoyl)methoxy)-1-(2-((1R,3S,4S)-3-((6-methylpyridin-2-yl)carbamoyl)-2-azabicyclo[2.2.1]heptan-2-yl)-2-oxoethyl)-1H-indole-3-carboxamide]",> 10
11,"CC(=O)c1cn(CC(=O)N2C[C@H](F)C[C@H]2C(=O)NCc2cccc(Cl)c2F)c2ccc(OCS(=O)(=O)NC(C)(C)C)cc12 [Compound 140, (2S,4R)-1-(2-(3-Acetyl-5-((N-(tert-butyl)sulfamoyl)methoxy)-1H-indol-1-yl)acetyl)-N-(3-chloro-2-fluorobenzyl)-4-fluoropyrrolidine-2-carboxamide]",< 1
12,"CC(=O)c1nn(CC(=O)N2[C@@H]3C[C@@H]3C[C@H]2C(=O)Nc2nc(Br)ccc2C)c2ccc(Oc3ncc(C)cn3)cc12 [Compound 173, (1R,3S,5R)-2-(2-(3-Acetyl-5-((5-methylpyrimidin-2-yl)oxy)-1H-indazol-1-yl)acetyl)-N-(6-bromo-3-methylpyridin-2-yl)-2-azabicyclo[3.1.0]hexane-3-carboxamide]",< 1
13,"CC(=O)c1cn(CC(=O)N2C[C@H](F)C[C@H]2C(=O)NCCCc2ccccc2)c2ccc(OCP(=O)(O)O)cc12 [Compound 149, (((3-Acetyl-1-(2-((2S,4R)-4-fluoro-2-((3-phenylpropyl)carbamoyl)pyrrolidin-1-yl)-2-oxoethyl)-1H-indol-5-yl)oxy)methyl)phosphonic acid]",> 10
14,"CC(=O)c1cn(CC(=O)N2C[C@H](F)C[C@H]2C(=O)NCc2ccccc2)c2ccc(OCS(=O)(=O)NC(C)(C)C)cc12 [Compound 129, (2S,4R)-1-(2-(3-Acetyl-5-((N-(tert-butyl)sulfamoyl)methoxy)-1H-indol-1-yl)acetyl)-N-benzyl-4-fluoropyrrolidine-2-carboxamide]",< 1
15,"CC(=O)c1cn(CC(=O)N2C[C@H](F)C[C@H]2C(=O)NCCc2ccccc2)c2ccc(OCP(=O)(O)O)cc12 [Compound 147, (((3-Acetyl-1-(2-((2S,4R)-4-fluoro-2-(phenethylcarbamoyl)pyrrolidin-1-yl)-2-oxoethyl)-1H-indol-5-yl)oxy)methyl)phosphonic acid]",> 10
16,"CCOP(=O)(COc1ccc2c(c1)c(C(C)=O)cn2CC(=O)N1C[C@H](F)C[C@H]1C(=O)NCCCc1ccccc1)OCC [Compound 148, diethyl (((3-acetyl-1-(2-((2S,4R)-4-fluoro-2-((3-phenylpropyl)carbamoyl)pyrrolidin-1-yl)-2-oxoethyl)-1H-indol-5-yl)oxy)methyl)phosphonate]",< 1
